System: not given
Settings: not given

Row | Structure (SMILES) | melting point [°C]
1 | COc1cc(C(=O)NC2CC(C)(C)N(C)C(C)(C)C2)ccc1-c1nc2cc(Cl)c(Cl)cc2n1C [Example 5, 4-(5,6-Dichloro-1-methylbenzimidazol-2-yl)-N-(1,2,2,6,6-pentamethylpiperidin-4-yl)-3-methoxybenzamide] | 178 to 180
2 | CN1C(C)(C)CC(NC(=O)c2ccc(-c3nc4cc(Cl)c(Cl)cc4[nH]3)c(O)c2)CC1(C)C [Example 3, 4-(5,6-Dichlorobenzimidazol-2-yl)-N-(1,2,2,6,6-pentamethylpiperidin-4-yl)-3-hydroxybenzamide] | > 250
3 | CN1C(C)(C)CC(NC(=O)c2ccc(-c3nc4cc(Cl)ccc4[nH]3)cc2)CC1(C)C [Example 2, 4-(5-Chlorobenzimidazol-2-yl)-N-(1,2,2,6,6-pentamethylpiperidin-4-yl)-benzamide] | > 250
4 | O=C(NCCCN1CCN(c2ncccn2)CC1)c1ccc(-c2nc3cc(Cl)c(Cl)cc3[nH]2)c(O)c1 [Example 8, 4-(5,6-Dichlorobenzimidazol-2-yl)-N-[3-[4-(2-pyrimidinyl)piperazin-1-yl]propyl]-3-hydroxybenzamide] | 258 to 260
5 | CN1C(C)(C)CC(NC(=O)c2ccc(-c3nc4cc(Cl)c(Cl)cc4[nH]3)cc2)CC1(C)C [Example 1, 4-(5,6-Dichlorobenzimidazol-2-yl)-N-(1,2,2,6,6-pentamethylpiperidin-4-yl)benzamide] | > 280
6 | COc1cc(C(=O)NC2CC(C)(C)N(C)C(C)(C)C2)ccc1-c1nc2cc(Cl)c(Cl)cc2[nH]1 [Example 4, 4-(5,6-Dichlorobenzimidazol-2-yl)-N-(1,2,2,6,6-pentamethylpiperidin-4-yl)-3-methoxybenzamide] | 285 to 286
7 | CCOc1cc(C(=O)NC2CC(C)(C)NC(C)(C)C2)ccc1-c1nc2cc(Cl)c(Cl)cc2[nH]1 [Example 6, 4-(5,6-Dichlorobenzimidazol-2-yl)-N-(2,2,6,6-tetramethylpiperidin-4-yl)-3-ethoxybenzamide] | > 280
8 | COc1cc(C(=O)NC2CC(C)(C)NC(C)(C)C2)ccc1-c1nc2cc(Cl)c(Cl)cc2[nH]1 [Example 10, 4-(5,6-Dichlorobenzimidazol-2-yl)-N-(2,2,6,6-tetramethylpiperidin-4-yl)-3-methoxybenzamide] | 233 to 235
9 | COc1cc(C(=O)NCCCN2CCN(c3ncccn3)CC2)ccc1-c1nc2cc(Cl)c(Cl)cc2[nH]1 [Example 7, 4-(5,6-Dichlorobenzimidazol-2-yl)-N-[3-[4-(2-pyrimidinyl)piperazin-1-yl]propyl]-3-methoxybenzamide] | 255 to 258

More lines, now with the values ahead:

Row | melting point [°C] | Structure (SMILES)
10 | > 250 | COc1cc(-c2nc3cc(Cl)c(Cl)cc3[nH]2)c(OC)cc1C(=O)NC1CC(C)(C)N(C)C(C)(C)C1 [Example 17, 4-(5,6-Dichlorobenzimidazol-2-yl)-N-(1,2,2,6,6-pentamethylpiperidin-4-yl)-2,5-dimethoxybenzamide]
11 | 148 to 150 | CCOc1cc(C(=O)NCCCO)ccc1-c1nc2cc(Cl)c(Cl)cc2[nH]1 [Example 16, 4-(5,6-Dichlorobenzimidazol-2-yl)-N-(3-hydroxypropyl)-3-ethoxybenzamide]
12 | > 250 | COc1cc(-c2nc3cc(Cl)c(Cl)cc3[nH]2)c(OC)cc1C(=O)NC1CC(C)(C)NC(C)(C)C1 [Example 18, 4-(5,6-Dichlorobenzimidazol-2-yl)-N-(2,2,6,6-tetramethylpiperidin-4-yl)-2,5-dimethoxybenzamide]
13 | > 250 | Cc1cc(C(=O)NC2CC(C)(C)NC(C)(C)C2)ccc1-c1nc2cc(Cl)c(Cl)cc2[nH]1 [Example 13, 4-(5,6-Dichlorobenzimidazol-2-yl)-N-(2,2,6,6-tetramethylpiperidin-4-yl)-3-methylbenzamide]
14 | 222 to 225 | CCOc1cc(C(=O)NC2CC(C)(C)NC(C)(C)C2)ccc1-c1nc2ccc(Cl)cc2[nH]1 [Example 19, 4-(5-Chlorobenzimidazol-2-yl)-N-(2,2,6,6-tetramethylpiperidin-4-yl)-3-ethoxybenzamide]
15 | 240 to 242 | COc1cc(C(=O)N(C)C2CC(C)(C)NC(C)(C)C2)ccc1-c1nc2cc(Cl)c(Cl)cc2[nH]1 [Example 11, 4-(5,6-Dichlorobenzimidazol-2-yl)-N-(2,2,6,6-tetramethylpiperidin-4-yl)-N-methyl-3-methoxybenzamide]
16 | > 260 | CCOc1cc(C(=O)Nc2cccnc2)ccc1-c1nc2cc(Cl)c(Cl)cc2[nH]1 [Example 15, 4-(5,6-Dichlorobenzimidazol-2-yl)-N-(3-pyridyl)-3-ethoxybenzamide]

System: osteoclast proton pump
Settings: membrane vesicles from avian osteoclasts, ATP-driven acidification, acridine orange quench; cited from earlier work

Row | Structure (SMILES) | proton transport inhibited / not inhibited
17 | CO/C1=C\C(C)=C\[C@@H](C)[C@@H](O)[C@@H](C)C/C(C)=C/C=C/[C@H](OC)[C@@H]([C@@H](C)[C@@H](O)[C@H](C)[C@@]2(O)C[C@@H](O)[C@H](C)[C@@H](C(C)C)O2)OC1=O [bafilomycin A1] | inhibited
18 | C[C@@H]1O[C@@H](O[C@H]2C[C@@H](O)[C@]3(CO)[C@H]4[C@H](O)C[C@]5(C)[C@@H](C6=CC(=O)OC6)CC[C@]5(O)[C@@H]4CC[C@]3(O)C2)[C@H](O)[C@H](O)[C@H]1O [ouabain] | not inhibited
19 | CCN1C(=O)C=CC1=O [N-ethylmaleimide] | inhibited
20 | Cc1nc2c(OCc3ccccc3)cccn2c1CC#N [SCH 28080] | not inhibited
21 | [Na+].[Na+].[Na+].[O]=[V]([O-])([O-])[O-] [sodium orthovanadate] | not inhibited

System: osteoclast cultures
Settings: cited from earlier work

Row | Structure (SMILES) | inhibit bone resorption
22 | CO/C1=C\C(C)=C\[C@@H](C)[C@@H](O)[C@@H](C)C/C(C)=C/C=C/[C@H](OC)[C@@H]([C@@H](C)[C@@H](O)[C@H](C)[C@@]2(O)C[C@@H](O)[C@H](C)[C@@H](C(C)C)O2)OC1=O [bafilomycin A1] | able to inhibit bone resorption

Reference: patent US7220769B2, “Azolylbenzamides and analogues and their use for treating osteoporosis” (Nikem Research S.R.L., priority 1999, dated 2007)
